The results in this text go back to US20240398783A1, “Compounds and Pharmaceutical Compositions Comprising Inhibitors of Amyloid Peptide Interactions with Glycosaminoglycans, Methods of Treatment and Use Thereof” (Gismo Therapeutics, Inc., priority 2021, published 2024).

Structures can show the parent of a compound that is named as a salt. Where two headings read alike, the source gives them in different places.

Test [1] has as its target TDP-43 binding to heparin (HS-GAG) (Homo sapiens, UniProt Q13148). The experiment in a line: Inhibition of TDP-43 binding to immobilized heparin-BSA (ELISA). Also on record: species or system porcine. The settings on record: for IC50: TDP-43, heparin-BSA; for inhibition at 30 µM: read-out: TDP43/Heparin Activity (% inhibition class). On the procedure: (§1) Porcine intestinal mucosa heparin conjugated to Bovine Serum Albumin (Heparin-BSA) was prepared as described (Najjam, S. et al. 1997, Cytokine 12, 1013-1022). Heparin is a sulfated HS-GAG and is commonly used as a HS-GAG in biochemical and binding assays (Lindahl, U. and Kjellen, L. (2013) ibid). Heparin-BSA at 0.01 mg/ml in Phosphate Buffered Saline (PBS; pH 7.4) was added to a 96 well polystyrene ELISA plate (NUNC Cat. No. 449824; 100 μl per well) and incubated Over Night (ON) at 4 degrees Celsius. For negative controls, ELISA plates were coated with BSA instead of Heparin-BSA, using the same procedure. Following the incubation, the plate was washed consecutively, by immersion, with de-ionized water and PBS (pH 7.4). The ELISA plate was then blocked with nonfat milk (2%, 200 μl per well) for 2 hours at Room Temperature (RT) with gentle shaking. Following blocking, the plate was washed with de-ionized water then PBS (pH 7.4). GBAPs were dissolved and diluted in PBS (pH 6.5, supplemented with 0.1% BSA) at desired concentrations, added to the ELISA plates containing immobilized Heparin-BSA (100 μl per well) and incubated for 2 hours at RT with gentle shaking. Following incubation, the plate was washed with de-ionized water and three times with PBS (pH 6.5) plus Tween. Bound GBAP was detected by a monoclonal antibody specific for that GBAP, followed by incubation with secondary antibody conjugated to horseradish peroxidase (HRP). Antibody was diluted in PBS (pH 6.5 supplemented with 1% BSA). Following each incubation with antibody, the plate was washed with de-ionized water and three times with PBS (pH 6.5) wash buffer containing 0.1% Tween. The peroxidase substrate chromogen, TMB (Dako Cat. No. S1599) was added (100 μl per well) to the ELISA plate and incubated at room temperature. After 5 minutes ELISA Stop Solution (hydrochloric acid 1N, sulfuric acid 3N) was added (100 μl per well) to stop the peroxidase catalyzed colorimetric reaction. The Optical Density of the samples was measured at 450 nm using an ELISA plate reader (BioTek Synergy H1). Following color development, the % inhibition compared to control (BSA-coated plates) was determined. IC-50s were calculated using GraphPad Prism software.
The assay was performed as described in Example 43, with the following modifications.
Following to coating the plates with Heparin-BSA, plates were washed as described. The compounds were dissolved in DMSO at 10 mM final concentration and further diluted prior to assay. DMSO concentration in the screening well was up to 2%. Individual compounds were co-incubated with TDP-43 on plates containing immobilized heparin. TDP43 from R&D System (Cat. No. AP-190) was quickly frozen and kept in aliquots at −80 degrees Celsius. TDP-43 dissolved in PBS (pH 6.5, supplemented with BSA, 0.1%) was added to the ELISA plate (100 μl per well) and incubated for 2 hours at RT with gentle shaking. Following the incubation, the plate was washed with de-ionized water and three times with PBS (pH 6.5) plus Tween. Bound TDP-43 was detected by Anti-TDP43 Monoclonal Antibody (R&D System Cat. No. MAB7778), followed by secondary anti-IgG antibody conjugated to HRP (R&D System, Cat. No. HAF007). Following to color development with TMB, as described in Example 43, the Optical Density of the samples was measured at 450 nm using an ELISA plate reader. Following color development, the % inhibition compared to control (no compound, DMSO control) for every compound was determined.
As described in Example 43, Heparin in the form of Heparin-BSA conjugate is used as a source of HS-GAG. For each compound IC-50 value in TDP-43—heparin-BSA binding assay is shown in μM (micromolar). In some cases IC-50 was not measured and % inhibition at 30 μM compound concentration is shown instead. […] All assays were done on 96-well plates in duplicates and experiments were repeated at least twice. […]

The target in test [2] is Tau binding to heparin (HS-GAG) (Homo sapiens, UniProt P10636). The experiment in a line: Inhibition of Tau binding to immobilized heparin-BSA (ELISA). Also on record: species or system porcine. The settings on record: for inhibition at 30 µM: read-out: Tau/Heparin Activity (% inhibition class). On the procedure: as §1
The assay was performed as described in Example 43, with the following modifications. Following to coating the plates with Heparin-BSA, plates were washed as described. The compounds were dissolved in DMSO at 10 mM final concentration and further diluted prior to assay. DMSO concentration in the screening well was up to 2%. Individual compounds were co-incubated with Tau on plates containing immobilized heparin. Tau purchased from rPeptide (Cat. No. T1001) was dissolved in DMSO (Sigma Cat. No. D2650), quickly frozen and kept in aliquots at −80 degrees Celsius. Tau dissolved in PBS (pH 6.5, supplemented with BSA, 0.1%) was added to the ELISA plate (100 μl per well) and incubated for 2 hours at RT with gentle shaking. Following the incubation, the plate was washed with de-ionized water and three times with PBS (pH 6.5) plus Tween. Bound Tau was detected by anti-Tau Monoclonal Antibody D-8 (Santa Cruz Cat. No. sc-166060), followed by secondary anti-IgG antibody conjugated to HRP (R&D System, Cat. No. HAF007). Following to color development with TMB, as described in Example 43, the Optical Density of the samples was measured at 450 nm using an ELISA plate reader. Following color development, the % inhibition compared to control (no compound, DMSO control) for every compound was determined.
An example of inhibition curve is shown in FIG. 3 for Inhibitor Compounds 3 and 6. As described in Example 43, Heparin in the form of Heparin-BSA conjugate is used as a source of HS-GAG. For each compound IC-50 value in Tau—heparin-BSA binding assay is shown in […]. In some cases IC-50 was not measured and […] at 30 μM compound concentration is shown instead. […]
Background: ELISA stands for enzyme-linked immunosorbent assay.

The mark [3] stands for this setting: read-out: TDP43/Heparin Activity (IC-50).
[4] abbreviates: Tau, heparin-BSA, read-out: Tau/Heparin Activity (IC-50).
The mark [5] stands for this setting: Tau/Heparin Activity (IC-50), Tau, heparin-BSA.
Where [6] appears, read: 30 μM compound, Tau, heparin-BSA.

Chain of Tau binding to heparin (HS-GAG) (P10636 with tags, fused parts or gaps): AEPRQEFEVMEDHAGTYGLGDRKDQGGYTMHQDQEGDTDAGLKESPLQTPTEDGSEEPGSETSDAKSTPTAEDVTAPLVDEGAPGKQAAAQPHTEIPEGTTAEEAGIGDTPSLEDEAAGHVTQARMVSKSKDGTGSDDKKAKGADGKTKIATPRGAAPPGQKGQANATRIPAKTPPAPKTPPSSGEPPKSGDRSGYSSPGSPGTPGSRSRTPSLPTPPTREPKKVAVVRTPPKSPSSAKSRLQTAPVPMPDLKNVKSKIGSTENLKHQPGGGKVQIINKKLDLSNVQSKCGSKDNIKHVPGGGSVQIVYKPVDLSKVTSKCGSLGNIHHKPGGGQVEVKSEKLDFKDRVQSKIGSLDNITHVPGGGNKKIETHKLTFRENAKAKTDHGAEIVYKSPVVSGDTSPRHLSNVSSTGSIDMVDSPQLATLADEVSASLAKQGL
Chain of TDP-43 binding to heparin (HS-GAG) (Q13148 whole entry): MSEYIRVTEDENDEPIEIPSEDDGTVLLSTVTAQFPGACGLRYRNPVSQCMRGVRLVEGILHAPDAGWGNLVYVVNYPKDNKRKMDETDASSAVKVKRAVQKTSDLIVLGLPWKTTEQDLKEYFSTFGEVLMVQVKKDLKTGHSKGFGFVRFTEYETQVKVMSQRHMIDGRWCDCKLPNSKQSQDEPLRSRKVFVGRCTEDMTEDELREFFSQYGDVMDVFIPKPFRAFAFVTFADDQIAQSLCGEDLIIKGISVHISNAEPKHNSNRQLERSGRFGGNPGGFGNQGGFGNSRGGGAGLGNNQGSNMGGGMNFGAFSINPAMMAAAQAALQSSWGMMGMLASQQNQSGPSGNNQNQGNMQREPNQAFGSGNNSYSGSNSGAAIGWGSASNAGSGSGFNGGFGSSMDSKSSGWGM

On to `Cc1cc(-n2ccnc2)ccc1/C=N/Nc1ccnc2cc(Cl)ccc12` [Compound 1, (E)-4-((E)-(4-(1H-imidazol-1-yl)-2-methylbenzylidene)hydrazono)-7-chloro-1,4-dihydroquinoline], for which the IC50 in test [1] (setting [3]) was 2.92 µM; in test [2] (setting [4]), 1.38 µM.

In the case of `Cc1ncn(-c2ccc(/C=N/Nc3ccnc4cc(Cl)ccc34)cc2)c1C` [Compound 2, (E)-7-chloro-4-((E)-(4-(4,5-dimethyl-1H-imidazol-1-yl)benzylidene)hydrazono)-1,4-dihydroquinoline], the IC50 in test [1] (TDP43/Heparin Activity (IC-50)) amounted to 61.7 µM; in test [2] (setting [5]) it was 4.42 µM.

Consider `Clc1ccc2c(N/N=C/c3ccc(-n4cccn4)cc3)ccnc2c1` [Compound 3, (E)-4-((E)-(4-(1H-pyrazol-1-yl)benzylidene)hydrazono)-7-chloro-1,4-dihydroquinoline], for which the values for the IC50 in test [1] (TDP43/Heparin Activity (IC-50)) and in test [2] (setting [5]) were 8.1 µM and 1.56 µM, respectively.

On to `C[N+](C)(C)Cc1ccc(/C=N\Nc2ccnc3ccc(Cl)cc23)cc1` [Compound 4, (Z)-1-(4-((2-(6-chloroquinolin-4-yl)hydrazineylidene)methyl)phenyl)—N,N,N-trimethylmethanaminium iodide], for which the inhibition at 30 µM in test [1] was less than 30%. In addition, the IC50 in test [2] (setting [5]) worked out at 29.2 µM.

Consider `Fc1ccc2c(N/N=C/c3ccc(-n4ccnc4)cc3)ccnc2c1` [Compound 5, (E)-4-(2-(4-(1H-imidazol-1-yl)benzylidene)hydrazinyl)-7-fluoroquinoline], for which the values for the IC50 in test [1] (TDP43/Heparin Activity (IC-50)) and in test [2] (setting [5]) were 71.4 µM and 31.4 µM, respectively.

Turning to `Fc1ccc2c(N/N=C/c3ccc(CN4CCOCC4)cc3)ccnc2c1` [Compound 6, (E)-4-(4-((2-(7-fluoroquinolin-4-yl)hydrazono)methyl)benzyl)morpholine], in test [1], the inhibition at 30 µM is less than 30%. The IC50 in test [2] (setting [5]) is 2.27 µM.

`CN1CCN(Cc2ccc(/C=N/Nc3ccnc4cc(Cl)ccc34)cc2)CC1` [Compound 7, (E)-7-chloro-4-(2-(4-((4-methylpiperazin-1-yl)methyl)benzylidene)hydrazinyl)quinolone]: the inhibition at 30 µM in test [1] was less than 30%. The IC50 in test [2] (setting [5]) came to 15.5 µM.

On to `C(=N\Nc1ccc2c3c(cccc13)CC2)/c1ccc(-n2ccnc2)cc1` [Compound 8, (E)-1-(4-((2-(1,2-dihydroacenaphthylen-5-yl)hydrazineylidene)methyl)phenyl)-1H-imidazole], for which, in test [1] (TDP43/Heparin Activity (IC-50)), the IC50 stood at 10.8 µM. The inhibition at 30 µM in test [2] is less than 30%.

As for `C[n+]1ccc(/C=N\Nc2ccnc3ccccc23)cc1` [Compound 9, (Z)-1-methyl-4-((2-(quinolin-4-yl)hydrazono)methyl)pyridin-1-ium iodide], the inhibition at 30 µM in test [1] and in test [2] (setting [6]) was less than 30% throughout.

In the case of `O=S1(=O)CCN(Cc2ccc(/C=N/Nc3ccnc4cc(F)ccc34)cc2)CC1` [Compound 10, (E)-4-(4-((2-(7-fluoroquinolin-4-yl)hydrazono)methyl)benzyl)thiomorpholine 1,1-dioxide], the inhibition at 30 µM in test [1] is more than 30%; in test [2] (setting [6]) it was less than 30%.

Turning to `COc1cc2nccc(NN=Cc3ccc(-n4ccnc4)c(C)c3)c2cc1OC` [Compound 11, 4-(2-(4-(1H-imidazol-1-yl)-3-methylbenzylidene)hydrazineyl)-6,7-dimethoxyquinoline hydrochloride], the inhibition at 30 µM in test [1] was less than 30%. Further, the IC50 in test [2] (setting [5]) was 3.3 µM.

As to `COc1ccc2c(NN=Cc3ccc(-n4ccnc4)c(C)c3)ccnc2c1` [Compound 12, 4-(2-(4-(1H-imidazol-1-yl)-3-methylbenzylidene)hydrazineyl)-7-methoxyquinoline], in test [1], the inhibition at 30 µM was less than 30%. The IC50 in test [2] (setting [5]) came out at 13.1 µM.

Regarding `COc1cc2nccc(N/N=C/c3ccc(-n4ccnc4)c(OC)c3)c2cc1OC` [Compound 13, (E)-4-(2-(4-(1H-imidazol-1-yl)-3-methoxybenzylidene)hydrazineyl)-6,7-dimethoxyquinoline phosphate], the inhibition at 30 µM in test [1] and in test [2] was less than 30% each time.

On to `Clc1ccc2c(N/N=C/c3ccc(-n4ccnc4)nc3)ccnc2c1` [Compound 14, (E)-4-(2-((6-(1H-imidazol-1-yl)pyridin-3-yl)methylene)hydrazineyl)-7-chloroquinoline hydrochloride], for which the IC50 in test [1] (TDP43/Heparin Activity (IC-50)) came to 4.32 µM; in test [2] (setting [5]) it was 20.3 µM.

`Cc1ncn(-c2ccc(/C=N\Nc3ncnc4cc(Cl)ccc34)cn2)c1C` [Compound 15, 7-chloro-4-(2-((6-(4,5-dimethyl-1H-imidazol-1-yl)pyridin-3-yl)methylene)hydrazineyl)quinazoline hydrochloride]: the IC50 in test [1] (TDP43/Heparin Activity (IC-50)) amounted to 3.06 µM; in test [2] (setting [5]) it was 67.9 µM.

For `C/C(=N\Nc1ncnc2cc(Cl)ccc12)c1ccc(-n2cnc(C)c2C)nc1` [Compound 16, 7-chloro-4-(2-(1-(6-(4,5-dimethyl-1H-imidazol-1-yl)pyridin-3-yl)ethylidene)hydrazineyl)quinazoline phosphate], the IC50 came to 2.16 µM in test [1] (TDP43/Heparin Activity (IC-50)) and 3.92 µM in test [2] (setting [5]).

As to `C/C(=N\Nc1ncnc2cc(Cl)ccc12)c1ccc(-n2cc[n+](C)c2)nc1` [Compound 17, (E)-1-(5-(1-(2-(7-chloroquinazolin-4-yl)hydrazineylidene)ethyl)pyridin-2-yl)-3-methyl-1H-imidazol-3-ium iodide phosphoric acid salt], the IC50 in test [1] (TDP43/Heparin Activity (IC-50)) worked out at 33.6 µM; in test [2] (setting [5]), 12.2 µM.

Regarding `C/C(=N\Nc1ncnc2cc(Cl)ccc12)c1ccc(-n2cc(C)nc2C)nc1` [Compound 18, (E)-7-chloro-4-(2-(1-(6-(2,4-dimethyl-1H-imidazol-1-yl)pyridin-3-yl)ethylidene)hydrazineyl)quinazoline phosphoric acid salt], the IC50 in test [1] (setting [3]) stood at 4.77 µM; in test [2] (setting [4]) it was 13.6 µM.
